Laboratory results: ChEMBL document CHEMBL4507301 (2021)

What was measured:
[1] = biological target: Mitogen-activated protein kinase kinase kinase 6 (Homo sapiens) (UniProt O95382); conditions: Compound concentration 1000.0 nM
[2] = biological target: Ephrin type-A receptor 8 (Homo sapiens) (UniProt P29322); conditions: Compound concentration 1000.0 nM
[3] = biological target: Mitogen-activated protein kinase kinase kinase 12 (Homo sapiens) (UniProt Q12852); conditions: Compound concentration 1000.0 nM
Rattus norvegicus = species: Rattus norvegicus; conditions: Compound concentration 10.0 uM
[4] = biological target: Serine/threonine-protein kinase Nek2 (Homo sapiens) (UniProt P51955); conditions: Compound concentration 1000.0 nM
[5] = biological target: Ribosomal protein S6 kinase alpha-6 (Homo sapiens) (UniProt Q9UK32); conditions: Compound concentration 1000.0 nM
[6] = biological target: NT-3 growth factor receptor (Homo sapiens) (UniProt Q16288); conditions: Compound concentration 1000.0 nM
[7] = biological target: Serine/threonine-protein kinase haspin (Homo sapiens) (UniProt Q8TF76); conditions: Compound concentration 1000.0 nM
[8] = biological target: Mitogen-activated protein kinase 8 (Homo sapiens) (UniProt P45983); conditions: Compound concentration 1000.0 nM
[9] = system: Phosphatidylinositol 4,5-bisphosphate 3-kinase catalytic subunit alpha isoform (Homo sapiens), P42336 [E545K]; conditions: Compound concentration 1000.0 nM
[10] = system: Epidermal growth factor receptor (Homo sapiens), P00533 [L861Q]; conditions: Compound concentration 1000.0 nM
[11] = biological target: Mitogen-activated protein kinase kinase kinase 4 (Homo sapiens) (UniProt Q9Y6R4); conditions: Compound concentration 1000.0 nM
[12] = biological target: Casein kinase I isoform alpha (Homo sapiens) (UniProt P48729); conditions: Compound concentration 1000.0 nM
[13] = system: Receptor-type tyrosine-protein kinase FLT3 (Homo sapiens), P36888 [K663Q]; conditions: Compound concentration 1000.0 nM
[14] = biological target: cAMP-dependent protein kinase catalytic subunit PRKX (Homo sapiens) (UniProt P51817); conditions: Compound concentration 1000.0 nM
[15] = biological target: Serine/threonine-protein kinase 10 (Homo sapiens) (UniProt O94804); conditions: Compound concentration 1000.0 nM
[16] = biological target: Cyclin-dependent kinase 19 (Homo sapiens) (UniProt Q9BWU1); conditions: Compound concentration 1000.0 nM
[17] = biological target: Mitogen-activated protein kinase 11 (Homo sapiens) (UniProt Q15759); conditions: Compound concentration 1000.0 nM
[18] = system: Tyrosine-protein kinase ABL1 (Homo sapiens), P00519 [F317L]; conditions: Compound concentration 1000.0 nM
[19] = biological target: Mitogen-activated protein kinase kinase kinase 5 (Homo sapiens) (UniProt Q99683); conditions: Compound concentration 1000.0 nM
[20] = biological target: Transient receptor potential cation channel subfamily M member 6 (Homo sapiens) (UniProt Q9BX84); conditions: Compound concentration 1000.0 nM
[21] = biological target: Serine/threonine-protein kinase Chk1 (Homo sapiens) (UniProt O14757); conditions: Compound concentration 1000.0 nM
[22] = biological target: Activin receptor type-1-like (Homo sapiens) (UniProt P37023); conditions: Compound concentration 1000.0 nM
[23] = biological target: Serine/threonine-protein kinase B-raf (Homo sapiens) (UniProt P15056); conditions: Compound concentration 1000.0 nM
[24] = biological target: Serine/threonine-protein kinase 16 (Homo sapiens) (UniProt O75716); conditions: Compound concentration 1000.0 nM
[25] = biological target: Receptor-type tyrosine-protein kinase FLT3 (Homo sapiens) (UniProt P36888); conditions: Compound concentration 1000.0 nM
[26] = biological target: Glycogen synthase kinase-3 alpha (Homo sapiens) (UniProt P49840); conditions: Compound concentration 1000.0 nM
[27] = biological target: Aurora kinase A (Homo sapiens) (UniProt O14965); conditions: Compound concentration 1000.0 nM
[28] = biological target: Serine/threonine-protein kinase Nek4 (Homo sapiens) (UniProt P51957); conditions: Compound concentration 1000.0 nM
[29] = biological target: Muscarinic acetylcholine receptor M1 (Homo sapiens) (UniProt P11229); conditions: Compound concentration 10.0 uM
[30] = system: Tyrosine-protein kinase ABL1 (Homo sapiens), P00519 [Y253F]; conditions: Compound concentration 1000.0 nM
[31] = biological target: Cyclin-dependent kinase-like 5 (Homo sapiens) (UniProt O76039); conditions: Compound concentration 1000.0 nM
[32] = biological target: Phosphatidylinositol 3-kinase catalytic subunit type 3 (Homo sapiens) (UniProt Q8NEB9); conditions: Compound concentration 1000.0 nM
[33] = biological target: Ephrin type-B receptor 4 (Homo sapiens) (UniProt P54760); conditions: Compound concentration 1000.0 nM
[34] = biological target: Tyrosine-protein kinase JAK1 (Homo sapiens) (UniProt P23458); conditions: Compound concentration 1000.0 nM
[35] = biological target: Mitogen-activated protein kinase kinase kinase 7 (Homo sapiens) (UniProt O43318); conditions: Compound concentration 1000.0 nM
[36] = biological target: Fibroblast growth factor receptor 3 (Homo sapiens) (UniProt P22607); conditions: Compound concentration 1000.0 nM
[37] = biological target: 5-hydroxytryptamine receptor 7 (Homo sapiens) (UniProt P34969); conditions: Compound concentration 10.0 uM
[38] = biological target: Proto-oncogene tyrosine-protein kinase Src (Homo sapiens) (UniProt P12931); conditions: Compound concentration 1000.0 nM
[39] = biological target: Calcium/calmodulin-dependent protein kinase type 1B (Homo sapiens) (UniProt Q6P2M8); conditions: Compound concentration 1000.0 nM
[40] = biological target: Cyclin-dependent kinase 15 (Homo sapiens) (UniProt Q96Q40); conditions: Compound concentration 1000.0 nM
[41] = biological target: Phosphatidylinositol 5-phosphate 4-kinase type-2 beta (Homo sapiens) (UniProt P78356); conditions: Compound concentration 1000.0 nM
[42] = biological target: GABA-A receptor; anion channel (Rattus norvegicus) (UniProt O09028+P15431+P18506+P18508+P19969+P20236+P23574+P23576+P28471+P28473+P30191+P62813+P63079+P63138+Q91ZM7+Q9ES14); conditions: Compound concentration 10.0 uM
[43] = biological target: Serine/threonine-protein kinase Nek7 (Homo sapiens) (UniProt Q8TDX7); conditions: Compound concentration 1000.0 nM
Sequence of Serine/threonine-protein kinase Nek7 (Homo sapiens) (Q8TDX7 whole entry, looked up): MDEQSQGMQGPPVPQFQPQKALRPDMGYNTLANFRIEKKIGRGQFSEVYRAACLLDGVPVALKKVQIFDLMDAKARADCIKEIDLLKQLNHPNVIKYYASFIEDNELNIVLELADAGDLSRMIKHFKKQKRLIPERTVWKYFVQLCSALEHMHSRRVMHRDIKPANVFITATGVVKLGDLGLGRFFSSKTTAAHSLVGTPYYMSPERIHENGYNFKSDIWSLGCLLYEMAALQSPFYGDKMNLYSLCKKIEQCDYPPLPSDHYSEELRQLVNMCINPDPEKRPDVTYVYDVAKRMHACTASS

Sequence of Ephrin type-B receptor 4 (Homo sapiens) (P54760 whole entry): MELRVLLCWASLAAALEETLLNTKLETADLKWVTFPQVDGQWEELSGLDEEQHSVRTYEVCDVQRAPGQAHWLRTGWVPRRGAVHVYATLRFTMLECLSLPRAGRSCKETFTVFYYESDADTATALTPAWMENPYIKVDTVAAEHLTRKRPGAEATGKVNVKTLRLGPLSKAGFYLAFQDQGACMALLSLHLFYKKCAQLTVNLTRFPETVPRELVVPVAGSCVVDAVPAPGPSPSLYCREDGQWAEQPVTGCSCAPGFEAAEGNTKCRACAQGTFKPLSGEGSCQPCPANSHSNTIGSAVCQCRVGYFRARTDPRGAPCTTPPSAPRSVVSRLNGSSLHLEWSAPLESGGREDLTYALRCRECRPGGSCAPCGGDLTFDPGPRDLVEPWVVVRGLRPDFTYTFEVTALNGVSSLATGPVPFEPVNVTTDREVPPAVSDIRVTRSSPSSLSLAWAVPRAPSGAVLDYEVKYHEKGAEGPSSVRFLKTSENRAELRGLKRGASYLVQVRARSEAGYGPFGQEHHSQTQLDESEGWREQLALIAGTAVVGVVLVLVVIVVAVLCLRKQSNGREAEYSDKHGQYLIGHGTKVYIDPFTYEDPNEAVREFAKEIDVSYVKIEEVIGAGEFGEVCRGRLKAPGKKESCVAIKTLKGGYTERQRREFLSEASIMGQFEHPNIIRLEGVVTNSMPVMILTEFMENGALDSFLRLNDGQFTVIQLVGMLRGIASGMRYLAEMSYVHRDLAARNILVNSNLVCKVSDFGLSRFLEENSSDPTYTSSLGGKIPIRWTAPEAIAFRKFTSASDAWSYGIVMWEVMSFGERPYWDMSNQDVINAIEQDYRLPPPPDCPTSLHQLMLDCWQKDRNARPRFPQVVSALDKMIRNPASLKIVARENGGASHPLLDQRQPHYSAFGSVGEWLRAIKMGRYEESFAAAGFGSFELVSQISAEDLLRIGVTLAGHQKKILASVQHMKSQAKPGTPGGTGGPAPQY
Sequence of Phosphatidylinositol 3-kinase catalytic subunit type 3 (Homo sapiens) (Q8NEB9 whole entry): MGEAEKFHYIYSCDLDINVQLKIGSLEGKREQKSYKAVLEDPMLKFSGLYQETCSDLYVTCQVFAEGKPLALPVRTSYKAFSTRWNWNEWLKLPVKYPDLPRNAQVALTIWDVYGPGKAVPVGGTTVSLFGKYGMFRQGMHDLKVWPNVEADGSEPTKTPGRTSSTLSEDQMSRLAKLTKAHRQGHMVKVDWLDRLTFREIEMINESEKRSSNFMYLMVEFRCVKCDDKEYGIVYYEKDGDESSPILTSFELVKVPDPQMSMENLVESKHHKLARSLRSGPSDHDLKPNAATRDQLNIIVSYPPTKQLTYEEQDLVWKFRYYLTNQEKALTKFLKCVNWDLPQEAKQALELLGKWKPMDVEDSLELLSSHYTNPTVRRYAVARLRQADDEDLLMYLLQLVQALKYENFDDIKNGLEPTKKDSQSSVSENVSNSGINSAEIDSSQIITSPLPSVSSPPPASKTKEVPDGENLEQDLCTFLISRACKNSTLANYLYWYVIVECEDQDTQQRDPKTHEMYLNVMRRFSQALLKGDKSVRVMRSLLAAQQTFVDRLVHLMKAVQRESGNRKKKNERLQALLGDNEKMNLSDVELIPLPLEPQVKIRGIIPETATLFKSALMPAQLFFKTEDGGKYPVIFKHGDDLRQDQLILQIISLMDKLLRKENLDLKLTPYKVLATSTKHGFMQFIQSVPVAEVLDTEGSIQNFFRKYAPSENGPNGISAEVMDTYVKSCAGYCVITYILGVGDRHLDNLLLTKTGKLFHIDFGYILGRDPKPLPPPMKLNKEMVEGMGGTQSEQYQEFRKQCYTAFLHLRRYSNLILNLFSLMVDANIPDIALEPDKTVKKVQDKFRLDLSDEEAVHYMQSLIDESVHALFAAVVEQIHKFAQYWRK
Sequence of Ribosomal protein S6 kinase alpha-6 (Homo sapiens) (Q9UK32 whole entry): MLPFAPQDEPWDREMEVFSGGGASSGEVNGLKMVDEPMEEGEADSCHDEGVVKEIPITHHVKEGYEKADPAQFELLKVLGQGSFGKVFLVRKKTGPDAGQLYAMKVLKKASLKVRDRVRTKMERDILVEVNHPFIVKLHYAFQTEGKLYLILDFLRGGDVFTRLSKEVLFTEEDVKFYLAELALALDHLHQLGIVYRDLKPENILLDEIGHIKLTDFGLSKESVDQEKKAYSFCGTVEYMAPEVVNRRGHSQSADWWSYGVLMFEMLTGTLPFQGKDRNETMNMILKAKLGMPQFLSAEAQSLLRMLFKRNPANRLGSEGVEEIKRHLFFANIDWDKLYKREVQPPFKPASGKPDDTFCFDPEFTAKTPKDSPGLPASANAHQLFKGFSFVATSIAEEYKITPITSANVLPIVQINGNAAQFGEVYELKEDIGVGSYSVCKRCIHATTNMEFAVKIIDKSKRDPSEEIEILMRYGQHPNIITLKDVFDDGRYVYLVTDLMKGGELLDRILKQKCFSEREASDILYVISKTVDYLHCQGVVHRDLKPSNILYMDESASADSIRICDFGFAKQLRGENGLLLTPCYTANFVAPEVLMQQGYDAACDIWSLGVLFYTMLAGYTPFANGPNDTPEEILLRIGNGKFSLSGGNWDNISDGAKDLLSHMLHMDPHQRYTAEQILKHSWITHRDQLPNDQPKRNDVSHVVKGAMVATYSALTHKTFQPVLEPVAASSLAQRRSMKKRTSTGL
Sequence of Phosphatidylinositol 4,5-bisphosphate 3-kinase catalytic subunit alpha isoform (Homo sapiens), P42336 [E545K] (P42336 whole entry E545K, canonical isoform): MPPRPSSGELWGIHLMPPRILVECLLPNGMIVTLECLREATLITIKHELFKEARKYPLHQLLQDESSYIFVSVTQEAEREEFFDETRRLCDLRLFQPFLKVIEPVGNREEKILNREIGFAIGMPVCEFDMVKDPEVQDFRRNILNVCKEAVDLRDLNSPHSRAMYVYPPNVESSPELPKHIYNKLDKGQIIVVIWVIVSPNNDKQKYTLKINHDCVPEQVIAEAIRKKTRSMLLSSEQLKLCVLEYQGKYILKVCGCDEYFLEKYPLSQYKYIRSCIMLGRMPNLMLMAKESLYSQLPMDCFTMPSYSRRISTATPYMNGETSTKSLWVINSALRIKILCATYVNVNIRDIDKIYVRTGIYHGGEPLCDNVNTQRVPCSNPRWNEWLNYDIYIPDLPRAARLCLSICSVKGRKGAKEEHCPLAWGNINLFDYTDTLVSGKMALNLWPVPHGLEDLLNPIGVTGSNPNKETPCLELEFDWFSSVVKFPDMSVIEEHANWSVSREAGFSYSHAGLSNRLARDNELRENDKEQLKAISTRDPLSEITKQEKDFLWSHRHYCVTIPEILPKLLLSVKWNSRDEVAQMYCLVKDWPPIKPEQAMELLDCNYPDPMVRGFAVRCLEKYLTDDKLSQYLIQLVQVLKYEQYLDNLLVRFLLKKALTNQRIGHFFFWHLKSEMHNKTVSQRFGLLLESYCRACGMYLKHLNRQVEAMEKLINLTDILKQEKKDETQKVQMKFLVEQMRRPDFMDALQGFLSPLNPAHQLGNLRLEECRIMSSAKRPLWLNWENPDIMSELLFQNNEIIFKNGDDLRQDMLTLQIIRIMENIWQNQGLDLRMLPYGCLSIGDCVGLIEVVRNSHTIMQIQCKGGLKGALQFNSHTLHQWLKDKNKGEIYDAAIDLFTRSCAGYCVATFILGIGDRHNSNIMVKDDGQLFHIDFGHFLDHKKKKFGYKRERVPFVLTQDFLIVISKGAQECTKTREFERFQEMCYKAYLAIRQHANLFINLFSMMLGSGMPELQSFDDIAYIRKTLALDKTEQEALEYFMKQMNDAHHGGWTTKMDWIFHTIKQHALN
Sequence of Serine/threonine-protein kinase haspin (Homo sapiens) (Q8TF76 whole entry): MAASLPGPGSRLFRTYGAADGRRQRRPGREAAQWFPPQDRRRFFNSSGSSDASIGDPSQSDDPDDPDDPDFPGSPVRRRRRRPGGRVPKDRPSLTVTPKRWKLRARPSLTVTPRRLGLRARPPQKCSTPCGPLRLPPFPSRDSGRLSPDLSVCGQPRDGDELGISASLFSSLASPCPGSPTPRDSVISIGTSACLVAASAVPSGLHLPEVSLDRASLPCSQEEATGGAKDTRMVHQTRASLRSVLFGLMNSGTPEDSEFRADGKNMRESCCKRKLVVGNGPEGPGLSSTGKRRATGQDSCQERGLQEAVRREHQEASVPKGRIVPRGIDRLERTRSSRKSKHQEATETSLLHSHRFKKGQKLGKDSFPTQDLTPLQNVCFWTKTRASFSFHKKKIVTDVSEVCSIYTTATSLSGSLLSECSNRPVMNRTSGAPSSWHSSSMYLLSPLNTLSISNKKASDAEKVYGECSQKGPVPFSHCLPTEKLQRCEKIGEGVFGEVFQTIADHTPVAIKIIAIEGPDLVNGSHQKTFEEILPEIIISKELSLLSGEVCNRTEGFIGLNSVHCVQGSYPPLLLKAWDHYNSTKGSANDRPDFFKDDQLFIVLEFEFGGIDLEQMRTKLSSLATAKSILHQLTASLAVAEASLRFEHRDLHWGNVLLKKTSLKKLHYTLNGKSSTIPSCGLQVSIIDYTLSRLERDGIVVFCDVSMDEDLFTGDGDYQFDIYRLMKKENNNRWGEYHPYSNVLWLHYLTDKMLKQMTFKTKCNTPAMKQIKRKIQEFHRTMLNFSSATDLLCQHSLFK

C[C@H](c1cccc(C#N)c1)n1cc(Cl)cc(C(N)=O)c1=N [(R)-9s]
inactive: residual activity [1] 91% | residual activity [2] 95% | residual activity [3] 100% | inhibition (Rattus norvegicus) 10.7% | residual activity [4] 100% | residual activity [5] 100% | residual activity [6] 96% | residual activity [7] 91% | residual activity [8] 72% | residual activity [9] 82% | residual activity [10] 100% | residual activity [12] 86% | residual activity [13] 100% | residual activity [14] 100% | residual activity [15] 100% | residual activity [16] 89% | residual activity [17] 100% | residual activity [18] 83% | residual activity [19] 85% | residual activity [20] 83% | residual activity [21] 100% | residual activity [22] 93% | residual activity [23] 100% | residual activity [24] 100% | residual activity [25] 95% | residual activity [26] 61% | residual activity [27] 97% | residual activity [28] 100% | inhibition [29] 9.11% | residual activity [30] 88% | residual activity [31] 73% | residual activity [32] 78% | residual activity [33] 89% | residual activity [34] 57% | residual activity [35] 77% | residual activity [36] 88% | inhibition [37] -7.43% | residual activity [38] 88% | residual activity [39] 89% | residual activity [40] 84% | residual activity [41] 52% | inhibition [42] 1.07% | residual activity [43] 97%
active: residual activity [11] 47%

C[C@@H](c1cccc(C#N)c1)n1cc(Cl)cc(C(N)=O)c1=N [(S)-9s]
active: residual activity [6] 0% | residual activity [18] 0%
inactive: residual activity [1] 79% | residual activity [2] 90% | residual activity [3] 100% | inhibition (Rattus norvegicus) 1.07% | residual activity [4] 100% | residual activity [5] 100% | residual activity [7] 100% | residual activity [8] 75% | residual activity [9] 88% | residual activity [10] 100% | residual activity [11] 71% | residual activity [12] 81% | residual activity [13] 92% | residual activity [14] 100% | residual activity [15] 86% | residual activity [16] 100% | residual activity [17] 93% | residual activity [19] 100% | residual activity [20] 71% | residual activity [21] 100% | residual activity [22] 80% | residual activity [23] 96% | residual activity [24] 85% | residual activity [25] 100% | residual activity [26] 82% | residual activity [27] 96% | residual activity [28] 96% | inhibition [29] 14.9% | residual activity [30] 85% | residual activity [31] 89% | residual activity [32] 97% | residual activity [33] 96% | residual activity [34] 94% | residual activity [35] 100% | residual activity [36] 100% | inhibition [37] 4.17% | residual activity [38] 99% | residual activity [39] 88% | residual activity [40] 89% | residual activity [41] 73% | inhibition [42] 8.14% | residual activity [43] 89%
